# In patent publication US11786548B2, “Trace element compositions, methods of making and use” (priority 2020, dated 2023):
# Several values for one entry are separate records, joined by “and”; a condition that tells them apart may be missing. Equal entries are not always repeated.
# Assay: Stability study of injectable trace element composition in parenteral nutrition admixtures (assay test for zinc, copper, selenium, manganese)
# Format: physicochemical
# Description: In order to establish stability data for parenteral nutrition admixed with the injectable compositions of trace elements, we conducted a stability study of injectable trace element composition (trace elements injectable composition, USP) in parenteral nutrition admixtures (assay test); a pH study of parenteral nutrition (PN) admixtures upon addition of injectable trace element composition (trace elements injectable composition, USP); a compatibility study of injectable trace element composition (trace elements injectable composition, USP) in parenteral nutrition admixtures; and a reduced inoculation antimicrobial effectiveness study for injectable trace element composition (trace elements injectable composition, USP) in parenteral nutrition admixtures. […]
Compound,Assay Day 0,Assay Day 5,Assay Day 7,Assay Day 10,Assay Day 14
"O.O.O.O.O.O=S(=O)([O-])[O-].[Cu+2] [Copper, cupric sulfate pentahydrate]",109.7%,98.7% and 98.8%,97.8%,99.9%,105.5% and 106.0%
"O.O.O.O.O.O.O.O=S(=O)([O-])[O-].[Zn+2] [Zinc, zinc sulfate heptahydrate]",96.5% and 98.5%,93.9% and 94.4%,93.8% and 96.5%,97.0% and 96.2%,96.0% and 96.3%
